{"source": "patent US20110152362A1", "about": "“METHODS OF TREATING EPILEPTOGENESIS AND EPILEPSY” (priority 2004, published 2011)", "test_system": "rats subjected to li-pilo SE", "assay": "Example 2: quantification of cell densities 14 days after li-pilo SE;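 further: Thionine-stained 20 µm brain sections, neurons with cell bodies above 10 µm counted, value is the mean of 12 fields per structure from three adjacent sections, both sides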", "conditions": "14 days after li-pilo SE", "note": "Marks after values point to notes of the source that are not given here.", "data": [{"smiles": "NC(=O)OC[C@@H](O)c1ccccc1Cl", "note": "[TC]", "values": [{"measurement": "number of neuronal cell bodies: Thalamus Central medial", "setting": "pilo-TC30 (TC 30 mg/kg)", "result": "75.6 ± 7.7"}, {"measurement": "number of neuronal cell bodies: Thalamus Dorsolateral, medial, dorsal", "setting": "pilo-TC30 (TC 30 mg/kg)", "result": "64.2 ± 9.3**°°"}, {"measurement": "number of neuronal cell bodies: Thalamus Dorsolateral, ventral lateral", "setting": "pilo-TC30 (TC 30 mg/kg)", "result": "8.8 ± 2.8"}, {"measurement": "number of neuronal cell bodies: Thalamus Mediodorsal central", "setting": "pilo-TC30 (TC 30 mg/kg)", "result": "26.9 ± 0.6"}, {"measurement": "number of neuronal cell bodies: Thalamus Mediodorsal lateral", "setting": "pilo-TC30 (TC 30 mg/kg)", "result": "20.5 ± 0.7"}, {"measurement": "number of neuronal cell bodies: Thalamus Mediodorsal medial", "setting": "pilo-TC30 (TC 30 mg/kg)", "result": "11.5 ± 2.5"}, {"measurement": "number of neuronal cell bodies: Amygdala Basolateral", "setting": "pilo-TC60 (TC 60 mg/kg)", "result": "27.8 ± 4.3**°°"}, {"measurement": "number of neuronal cell bodies: Amygdala Medial, dorsal anterior", "setting": "pilo-TC60 (TC 60 mg/kg)", "result": "58.4 ± 2.8**°"}, {"measurement": "number of neuronal cell bodies: Amygdala Medial, ventral posterior", "setting": "pilo-TC60 (TC 60 mg/kg)", "result": "26.2 ± 2.9"}, {"measurement": "number of neuronal cell bodies: Cerebral cortex Entorhinal, layer II, dorsal", "setting": "pilo-TC60 (TC 60 mg/kg)", "result": "23.9 ± 0.5"}, {"measurement": "number of neuronal cell bodies: Cerebral cortex Entorhinal, layer II, ventral", "setting": "pilo-TC60 (TC 60 mg/kg)", "result": "23.3 ± 0.8"}, {"measurement": "number of neuronal cell bodies: Cerebral cortex Entorhinal, layer III/IV, dorsal", "setting": "pilo-TC60 (TC 60 mg/kg)", "result": "23.2 ± 0.8"}, {"measurement": "number of neuronal cell bodies: Cerebral cortex Entorhinal, layer III/IV, ventral", "setting": "pilo-TC60 (TC 60 mg/kg)", "result": "16.5 ± 2.2"}, {"measurement": "number of neuronal cell bodies: Cerebral cortex Piriform, layer II, dorsal", "setting": "pilo-TC60 (TC 60 mg/kg)", "result": "27.5 ± 2.8**°°"}, {"measurement": "number of neuronal cell bodies: Cerebral cortex Piriform, layer II, ventral", "setting": "pilo-TC60 (TC 60 mg/kg)", "result": "13.7 ± 4.2"}, {"measurement": "number of neuronal cell bodies: Cerebral cortex Piriform, layer III", "setting": "pilo-TC60 (TC 60 mg/kg)", "result": "6.4 ± 2.3"}, {"measurement": "number of neuronal cell bodies: Hippocampus CA1 area", "setting": "pilo-TC60 (TC 60 mg/kg)", "result": "31.9 ± 44**°°"}, {"measurement": "number of neuronal cell bodies: Hippocampus CA3 area", "setting": "pilo-TC60 (TC 60 mg/kg)", "result": "31.6 ± 1.4"}, {"measurement": "number of neuronal cell bodies: Hippocampus Hilus", "setting": "pilo-TC60 (TC 60 mg/kg)", "result": "32.8 ± 3.3"}, {"measurement": "number of neuronal cell bodies: Thalamus Central medial", "setting": "pilo-TC60 (TC 60 mg/kg)", "result": "83.7 ± 9.6"}, {"measurement": "number of neuronal cell bodies: Thalamus Dorsolateral, medial, dorsal", "setting": "pilo-TC60 (TC 60 mg/kg)", "result": "77.5 ± 3.9**°°"}, {"measurement": "number of neuronal cell bodies: Thalamus Dorsolateral, ventral lateral", "setting": "pilo-TC60 (TC 60 mg/kg)", "result": "56.7 ± 8.7"}, {"measurement": "number of neuronal cell bodies: Thalamus Mediodorsal central", "setting": "pilo-TC60 (TC 60 mg/kg)", "result": "24.1 ± 1**^"}, {"measurement": "number of neuronal cell bodies: Thalamus Mediodorsal lateral", "setting": "pilo-TC60 (TC 60 mg/kg)", "result": "18.9 ± 0.6"}, {"measurement": "number of neuronal cell bodies: Thalamus Mediodorsal medial", "setting": "pilo-TC60 (TC 60 mg/kg)", "result": "19.1 ± 2.6"}, {"measurement": "number of neuronal cell bodies: Amygdala Basolateral", "setting": "pilo-TC90 (TC 90 mg/kg)", "result": "40.7 ± 1.6", "unit": "°°"}, {"measurement": "number of neuronal cell bodies: Amygdala Medial, dorsal anterior", "setting": "pilo-TC90 (TC 90 mg/kg)", "result": "72.2 ± 5.7", "unit": "°°"}, {"measurement": "number of neuronal cell bodies: Amygdala Medial, ventral posterior", "setting": "pilo-TC90 (TC 90 mg/kg)", "result": "30.7 ± 3.7", "unit": "°°"}, {"measurement": "number of neuronal cell bodies: Cerebral cortex Entorhinal, layer II, dorsal", "setting": "pilo-TC90 (TC 90 mg/kg)", "result": "26.3 ± 0.9"}, {"measurement": "number of neuronal cell bodies: Cerebral cortex Entorhinal, layer II, ventral", "setting": "pilo-TC90 (TC 90 mg/kg)", "result": "25.4 ± 1.1", "unit": "°^"}, {"measurement": "number of neuronal cell bodies: Cerebral cortex Entorhinal, layer III/IV, dorsal", "setting": "pilo-TC90 (TC 90 mg/kg)", "result": "26.7 ± 0.8"}, {"measurement": "number of neuronal cell bodies: Cerebral cortex Entorhinal, layer III/IV, ventral", "setting": "pilo-TC90 (TC 90 mg/kg)", "result": "23.7 ± 1.5", "unit": "°°"}, {"measurement": "number of neuronal cell bodies: Cerebral cortex Piriform, layer II, dorsal", "setting": "pilo-TC90 (TC 90 mg/kg)", "result": "32.4 ± 1.1", "unit": "°°"}, {"measurement": "number of neuronal cell bodies: Cerebral cortex Piriform, layer II, ventral", "setting": "pilo-TC90 (TC 90 mg/kg)", "result": "18.4 ± 4.0", "unit": "°°"}, {"measurement": "number of neuronal cell bodies: Cerebral cortex Piriform, layer III", "setting": "pilo-TC90 (TC 90 mg/kg)", "result": "9 ± 3.0", "unit": "°°"}, {"measurement": "number of neuronal cell bodies: Hippocampus CA1 area", "setting": "pilo-TC90 (TC 90 mg/kg)", "result": "47.7 ± 6.6*°"}, {"measurement": "number of neuronal cell bodies: Hippocampus CA3 area", "setting": "pilo-TC90 (TC 90 mg/kg)", "result": "35.1 ± 2.9"}, {"measurement": "number of neuronal cell bodies: Hippocampus Hilus", "setting": "pilo-TC90 (TC 90 mg/kg)", "result": "37.5 ± 3.1"}, {"measurement": "number of neuronal cell bodies: Thalamus Central medial", "setting": "pilo-TC90 (TC 90 mg/kg)", "result": "88.2 ± 8.5^"}, {"measurement": "number of neuronal cell bodies: Thalamus Dorsolateral, medial, dorsal", "setting": "pilo-TC90 (TC 90 mg/kg)", "result": "79.4 ± 3.1**°°"}, {"measurement": "number of neuronal cell bodies: Thalamus Dorsolateral, ventral lateral", "setting": "pilo-TC90 (TC 90 mg/kg)", "result": "71.8 ± 5.3", "unit": "°°*"}, {"measurement": "number of neuronal cell bodies: Thalamus Mediodorsal central", "setting": "pilo-TC90 (TC 90 mg/kg)", "result": "27.4 ± 1.5^"}, {"measurement": "number of neuronal cell bodies: Thalamus Mediodorsal lateral", "setting": "pilo-TC90 (TC 90 mg/kg)", "result": "22 ± 1.2*°"}, {"measurement": "number of neuronal cell bodies: Thalamus Mediodorsal medial", "setting": "pilo-TC90 (TC 90 mg/kg)", "result": "23.1 ± 2.8", "unit": "°°"}, {"measurement": "number of neuronal cell bodies: Amygdala Basolateral", "setting": "pilo-TC120 (TC 120 mg/kg)", "result": "42.7 ± 1.3", "unit": "°°"}, {"measurement": "number of neuronal cell bodies: Amygdala Medial, dorsal anterior", "setting": "pilo-TC120 (TC 120 mg/kg)", "result": "80.2 ± 2.6", "unit": "°°"}, {"measurement": "number of neuronal cell bodies: Amygdala Medial, ventral posterior", "setting": "pilo-TC120 (TC 120 mg/kg)", "result": "34.7 ± 1.7", "unit": "°°"}, {"measurement": "number of neuronal cell bodies: Cerebral cortex Entorhinal, layer II, dorsal", "setting": "pilo-TC120 (TC 120 mg/kg)", "result": "27.3 ± 0.5", "unit": "°°"}, {"measurement": "number of neuronal cell bodies: Cerebral cortex Entorhinal, layer II, ventral", "setting": "pilo-TC120 (TC 120 mg/kg)", "result": "25.1 ± 0.6^"}, {"measurement": "number of neuronal cell bodies: Cerebral cortex Entorhinal, layer III/IV, dorsal", "setting": "pilo-TC120 (TC 120 mg/kg)", "result": "26.4 ± 0.7", "unit": "°°"}, {"measurement": "number of neuronal cell bodies: Cerebral cortex Entorhinal, layer III/IV, ventral", "setting": "pilo-TC120 (TC 120 mg/kg)", "result": "24.5 ± 1.4", "unit": "°°"}, {"measurement": "number of neuronal cell bodies: Cerebral cortex Piriform, layer II, dorsal", "setting": "pilo-TC120 (TC 120 mg/kg)", "result": "35.2 ± 1.1", "unit": "°°"}, {"measurement": "number of neuronal cell bodies: Cerebral cortex Piriform, layer II, ventral", "setting": "pilo-TC120 (TC 120 mg/kg)", "result": "30.5 ± 1.3", "unit": "°°"}, {"measurement": "number of neuronal cell bodies: Cerebral cortex Piriform, layer III", "setting": "pilo-TC120 (TC 120 mg/kg)", "result": "15 ± 2.2", "unit": "°°"}, {"measurement": "number of neuronal cell bodies: Hippocampus CA1 area", "setting": "pilo-TC120 (TC 120 mg/kg)", "result": "65.5 ± 2.9", "unit": "°°"}, {"measurement": "number of neuronal cell bodies: Hippocampus CA3 area", "setting": "pilo-TC120 (TC 120 mg/kg)", "result": "39.8 ± 1.5"}, {"measurement": "number of neuronal cell bodies: Hippocampus Hilus", "setting": "pilo-TC120 (TC 120 mg/kg)", "result": "44.8 ± 2.9"}, {"measurement": "number of neuronal cell bodies: Thalamus Central medial", "setting": "pilo-TC120 (TC 120 mg/kg)", "result": "108.2 ± 6.6", "unit": "° ^"}, {"measurement": "number of neuronal cell bodies: Thalamus Dorsolateral, medial, dorsal", "setting": "pilo-TC120 (TC 120 mg/kg)", "result": "89.8 ± 3.7*°"}, {"measurement": "number of neuronal cell bodies: Thalamus Dorsolateral, ventral lateral", "setting": "pilo-TC120 (TC 120 mg/kg)", "result": "79.0 ± 4.7", "unit": "°°"}, {"measurement": "number of neuronal cell bodies: Thalamus Mediodorsal central", "setting": "pilo-TC120 (TC 120 mg/kg)", "result": "29.9 ± 1.7", "unit": "°^"}, {"measurement": "number of neuronal cell bodies: Thalamus Mediodorsal lateral", "setting": "pilo-TC120 (TC 120 mg/kg)", "result": "24.4 ± 1.1", "unit": "°°"}, {"measurement": "number of neuronal cell bodies: Thalamus Mediodorsal medial", "setting": "pilo-TC120 (TC 120 mg/kg)", "result": "28.6 ± 0.8", "unit": "°°"}]}]}
